Data reported in US5001143A, “Pharmaceutical composition for prophylactic and preventive of ketosis of livestocks” (Nihon Nohyaku Co., Ltd., priority 1983, dated 1991).

Columns and labels:
[1] = Toxicity, LD50 (male mice); settings: mouse, in vivo
cows seized by ketosis = assay: Pharmacological test: oral administration of granules to cows seized by ketosis once daily for 6 weeks, blood and urine components with time; type: in vivo; on Ketone bodies in urine: key: +++: Detected noticeably; ++: Detected clearly; +: Slightly detected; -: Not detected
Method: Pharmacological tests for the active ingredient of pharmaceutical composition of the present invention were conducted, by making the active ingredient into granules as in Example 1 and forcibly administering the granules orally to cows seized by ketosis in a predetermined dose once daily for 6 weeks. Examinations of various check items were made for bloods and urines taken from the cows before and 1, 3 and 6 weeks after the administration. In serum biochemical diagnosis, bloods were taken, coagulated and then subjected to centrifugation (3,000 rpm, 15 min.) to obtain respective serums and these serums were used. Blood sugar level was determined by a method using a glucose oxidase; free fatty acids were determined by an ACS-ACO-POD method; and ketone bodies in blood were determined by a diffusion colorimetry using salicyl aldehyde (THIN-ROBERTSON method). Ketone bodies in urine were determined by the use of Labstix (Sankyo Miles).
50 Parts of a compound No. 6, 15.0 parts of light silicic acid anhydride, 5.0 parts of precipitated calcium carbonate, 5.0 parts of corn starch, 2.0 parts of crystalline cellulose, 5.0 parts of a polyvinyl alcohol and 30 parts of water are homogeneously mixed and kneaded. Then, the mixture is ground, pelletized, dried and sifted to prepare granules. The granules are used for curing of ketosis of cows.

male mice = assay: Toxicity, LD50 (male mice); settings: male mice
[2] = 25 mg/kg oral once daily, 1 week after adm.
[3] = 25 mg/kg oral once daily, 3 weeks after adm.
[4] = 25 mg/kg oral once daily, 6 weeks after adm.
[5] = 25 mg/kg oral once daily, before adm.
[6] = 77.2 mg/kg oral once daily, 1 week after adm.
[7] = 77.2 mg/kg oral once daily, 3 weeks after adm.
[8] = 77.2 mg/kg oral once daily, 6 weeks after adm.
[9] = 77.2 mg/kg oral once daily, before adm.
[10] = 50 mg/kg oral once daily, 1 week after adm.
[11] = 50 mg/kg oral once daily, 3 weeks after adm.
[12] = 50 mg/kg oral once daily, 6 weeks after adm.
[13] = 50 mg/kg oral once daily, before adm.
[14] = 100 mg/kg oral once daily, 1 week after adm.
[15] = 100 mg/kg oral once daily, 3 weeks after adm.
[16] = 100 mg/kg oral once daily, 6 weeks after adm.
[17] = 100 mg/kg oral once daily, before adm.

Compound CC(C)OC(=O)C(C(=O)OC(C)C)=C1SCS1 [compound 1] has an LD50 [1] of over 5000 mg/kg.
For CCOC(=O)C(C(=O)OC(C)C)=C1SCS1 [compound 2], the LD50 [1] was over 5000 mg/kg.
With CC(C)OC(=O)C(C(=O)OC(C)C)=C1SC(C(=O)O)S1 (stereo not shown) [compound 3] the “Acetoacetic acid in blood” value (cows seized by ketosis; [2]) was 220 µmol/L, the Blood sugar level (cows seized by ketosis; [2]) was 38.4 mg/dL and the “Free fatty acids in blood” value (cows seized by ketosis; [2]) was 416 μEq/l. The “Ketone bodies in urine” value (cows seized by ketosis; [2]) was “++”, the “Acetoacetic acid in blood” value (cows seized by ketosis; [3]) was 816 µmol/L and the Blood sugar level (cows seized by ketosis; [3]) was 34.0 mg/dL. For the same compound, the “Free fatty acids in blood” value (cows seized by ketosis; [3]) was 306 μEq/l, the “Ketone bodies in urine” value (cows seized by ketosis; [3]) was “+” and the “Acetoacetic acid in blood” value (cows seized by ketosis; [4]) was 400 µmol/L. The Blood sugar level (cows seized by ketosis; [4]) was 43.3 mg/dL, the “Free fatty acids in blood” value (cows seized by ketosis; [4]) was 418 μEq/l and the “Ketone bodies in urine” value (cows seized by ketosis; [4]) was “+”. For the same compound, the “Acetoacetic acid in blood” value (cows seized by ketosis; [5]) was 628 µmol/L, the Blood sugar level (cows seized by ketosis; [5]) was 33.0 mg/dL and the “Free fatty acids in blood” value (cows seized by ketosis; [5]) was 1,423 μEq/l. For the same compound, the “Ketone bodies in urine” value (cows seized by ketosis; [5]) was “+++” and the LD50 [1] was over 5000 mg/kg.
In the case of CC(C)OC(=O)C(C(=O)OC(C)C)=C1SC=CS1 [compound 4], the “Acetoacetic acid in blood” value (cows seized by ketosis; [6]) is reported as 50 µmol/L, the Blood sugar level (cows seized by ketosis; [6]) is reported as 40.3 mg/dL and the “Free fatty acids in blood” value (cows seized by ketosis; [6]) is reported as 428 μEq/l. For the same compound, the “Ketone bodies in urine” value (cows seized by ketosis; [6]) was “++”, the “Acetoacetic acid in blood” value (cows seized by ketosis; [7]) was 142 µmol/L and the Blood sugar level (cows seized by ketosis; [7]) was 55.4 mg/dL. For the same compound, the “Free fatty acids in blood” value (cows seized by ketosis; [7]) was 303 μEq/l, the “Ketone bodies in urine” value (cows seized by ketosis; [7]) was “+” and the “Acetoacetic acid in blood” value (cows seized by ketosis; [8]) was 146 µmol/L. For the same compound, the Blood sugar level (cows seized by ketosis; [8]) was 57.7 mg/dL, the “Free fatty acids in blood” value (cows seized by ketosis; [8]) was 238 μEq/l and the “Ketone bodies in urine” value (cows seized by ketosis; [8]) was “-”. For the same compound, the “Acetoacetic acid in blood” value (cows seized by ketosis; [9]) was 446 µmol/L, the Blood sugar level (cows seized by ketosis; [9]) was 43.2 mg/dL and the “Free fatty acids in blood” value (cows seized by ketosis; [9]) was 1,377 μEq/l. For the same compound, the “Ketone bodies in urine” value (cows seized by ketosis; [9]) was “+++” and the LD50 (male mice) was 3,120 mg/kg.
In the case of CC(C)OC(=O)C(C(=O)OC(C)C)=C1SCCS1 [compound 6, diisopropyl 1,3-dithiolan-2-ylindene malonate], the “Acetoacetic acid in blood” value (cows seized by ketosis; [2]) is reported as 630 µmol/L, the Blood sugar level (cows seized by ketosis; [2]) is reported as 23.5 mg/dL and the “Free fatty acids in blood” value (cows seized by ketosis; [2]) is reported as 550 μEq/l. For the same compound, the “Ketone bodies in urine” value (cows seized by ketosis; [2]) was “++”, the “Acetoacetic acid in blood” value (cows seized by ketosis; [3]) was 156 µmol/L and the Blood sugar level (cows seized by ketosis; [3]) was 52.9 mg/dL. For the same compound, the “Free fatty acids in blood” value (cows seized by ketosis; [3]) was 201 μEq/l, the “Acetoacetic acid in blood” value (cows seized by ketosis; [4]) was 104 µmol/L and the Blood sugar level (cows seized by ketosis; [4]) was 59.0 mg/dL. The “Free fatty acids in blood” value (cows seized by ketosis; [4]) was 351 μEq/l, the “Acetoacetic acid in blood” value (cows seized by ketosis; [5]) was 662 µmol/L and the Blood sugar level (cows seized by ketosis; [5]) was 30.6 mg/dL. The “Free fatty acids in blood” value (cows seized by ketosis; [5]) was 1,148 μEq/l, the “Ketone bodies in urine” value (cows seized by ketosis; [5]) was “+++” and the “Acetoacetic acid in blood” value (cows seized by ketosis; [10]) was 1,344 μmol/1. For the same compound, the Blood sugar level (cows seized by ketosis; [10]) was 34.3 mg/dL, the “Free fatty acids in blood” value (cows seized by ketosis; [10]) was 556.6 μEq/l and the “Ketone bodies in urine” value (cows seized by ketosis; [10]) was “+”. The “Acetoacetic acid in blood” value (cows seized by ketosis; [11]) was 608 μmol/1, the Blood sugar level (cows seized by ketosis; [11]) was 43.3 mg/dL and the “Free fatty acids in blood” value (cows seized by ketosis; [11]) was 507.5 μEq/l. The “Ketone bodies in urine” value (cows seized by ketosis; [11]) was “-”, the “Acetoacetic acid in blood” value (cows seized by ketosis; [12]) was 102 μmol/1 and the Blood sugar level (cows seized by ketosis; [12]) was 64.8 mg/dL. For the same compound, the “Free fatty acids in blood” value (cows seized by ketosis; [12]) was 118.2 μEq/l, the “Ketone bodies in urine” value (cows seized by ketosis; [12]) was “-” and the “Acetoacetic acid in blood” value (cows seized by ketosis; [13]) was 1,550 μmol/1. The Blood sugar level (cows seized by ketosis; [13]) was 33.6 mg/dL, the “Free fatty acids in blood” value (cows seized by ketosis; [13]) was 1,862.3 μEq/l and the “Ketone bodies in urine” value (cows seized by ketosis; [13]) was “+++”. For the same compound, the LD50 (male mice) was 1,350 mg/kg.
With CC(C)OC(=O)C(C(=O)OC(C)C)=C1SCC[S+]1[O-] (stereo not shown) [compound 7] the LD50 [1] was over 6000 mg/kg.
For CC(C)OC(=O)C(C(=O)OC(C)C)=C1SCC(O)S1 (stereo not shown) [compound 8], the “Acetoacetic acid in blood” value (cows seized by ketosis; [14]) was 260 µmol/L, the Blood sugar level (cows seized by ketosis; [14]) was 48.4 mg/dL and the “Free fatty acids in blood” value (cows seized by ketosis; [14]) was 476 μEq/l. For the same compound, the “Ketone bodies in urine” value (cows seized by ketosis; [14]) was “+”, the “Acetoacetic acid in blood” value (cows seized by ketosis; [15]) was 586 µmol/L and the Blood sugar level (cows seized by ketosis; [15]) was 41.0 mg/dL. The “Free fatty acids in blood” value (cows seized by ketosis; [15]) was 747 μEq/l, the “Ketone bodies in urine” value (cows seized by ketosis; [15]) was “+” and the “Acetoacetic acid in blood” value (cows seized by ketosis; [16]) was 76 µmol/L. The Blood sugar level (cows seized by ketosis; [16]) was 53.5 mg/dL, the “Free fatty acids in blood” value (cows seized by ketosis; [16]) was 371 μEq/l and the “Ketone bodies in urine” value (cows seized by ketosis; [16]) was “-”. For the same compound, the “Acetoacetic acid in blood” value (cows seized by ketosis; [17]) was 1,232 μmol/l, the Blood sugar level (cows seized by ketosis; [17]) was 32.0 mg/dL and the “Free fatty acids in blood” value (cows seized by ketosis; [17]) was 1,727 μEq/l. The “Ketone bodies in urine” value (cows seized by ketosis; [17]) was “+++” and the LD50 [1] was over 6590 mg/kg.
